Measured values: USRE29244E, “Coccidiostats” (priority 1976, dated 1977)
Counter-ions that a name gives are not always drawn. Like-named read-outs stand apart in the source and are kept apart here.

Key:
Bacillus E = experiment: Antimicrobial spectrum, plate assay; format: cell-based
Procedure: (§1) The following table summarizes the antimicrobial spectrum of antibiotic X-537A:
(§2) Antimicrobial spectrum of antibiotic X-537A
(§3) Test organism: Plate units per mg.
(§4) The antibiotic can be prepared by growing the Streptomyces organisms in an aerated submerged culture. This can be done in either a shaken flask or in 50-1,000 gallon stainless steel and iron fermentation tanks. The broths are adjusted to a pH which is about neutral, i.e., 6.5-7.5 prior to be sterilized and are then incubated at slightly elevated temperatures, e.g., about 27° to 30° C., after being inoculated with spore suspensions or vegetative growth. The reaction broth is then filtered and the active material is extracted with a suitable solvent, preferably methanol, n-butanol or butyl acetate. The antibiotic activity is followed by cup-plate agar diffusion assay in which the test organism Bacillus E is employed. In general, the concentration of antibiotic required to produce an inhibition zone of 20-22 mm. in diameter with any of the test organisms is considered to be 1 unit per ml. Whole broths are diluted for assay in 1% phosphate buffer, pH 6.0.

Bacillus cereus = experiment: Antimicrobial spectrum, plate assay; format: cell-based
Procedure: as §1, §2, §3, §4

Bacillus mesentericus = experiment: Antimicrobial spectrum, plate assay; format: cell-based
Procedure: as §1, §2, §3, §4

Bacillus simplex = experiment: Antimicrobial spectrum, plate assay; format: cell-based
Procedure: as §1, §2, §3, §4

Corynebacterium simplex = experiment: Antimicrobial spectrum, plate assay; format: cell-based
Procedure: as §1, §2, §3, §4

Mycobacterium phlei = experiment: Antimicrobial spectrum, plate assay; format: cell-based
Procedure: as §1, §2, §3, §4

Saccharomyces cerevisiac = experiment: Antimicrobial spectrum, plate assay; format: cell-based
Procedure: as §1, §2, §3, §4

Sarcina lutea = experiment: Antimicrobial spectrum, plate assay; format: cell-based
Procedure: as §1, §2, §3, §4

[1] = test system: Scopulariopsis brevicaulis; experiment: Antimicrobial spectrum, plate assay; format: cell-based
Procedure: as §1, §2, §3, §4

Staphylococcus aureus = experiment: Antimicrobial spectrum, plate assay; format: cell-based
Procedure: as §1, §2, §3, §4

Gram-negatives = experiment: Antimicrobial spectrum, plate assay; format: cell-based; conditions: Gram-negatives: Pseudomonas acruginosa, Aerobacillus polymyxa, Escherichia coli
Source text: as §1, §2, §3
*These were Pseudomonas acruginosa, Aerobacillus polymyxa and Escherichia
as §4

gram-positive bacteria = experiment: In vitro antibacterial activity; format: cell-based
mycobacteria = experiment: In vitro antibacterial activity; format: cell-based
gram-negative bacteria = experiment: In vitro antibacterial activity; format: cell-based
Toxic dosage in mice = format: in vivo; conditions: for MTD: mouse, in vivo, read-out: Tolerated dose
Source text: The toxic dosage of the antibiotic as tested in mice and designated as the lethal dose is as follows: […]

[2] = Continuous feeding of chicks for nine weeks; format: in vivo, chicken
Source text: At 0.025%, growth is reduced, feed conversion impaired and 25% mortality occurs.

Eimeria tenella = Eimeria tenella infection in laboratory chickens; format: in vivo; design: Average degree of infection: scale not given here; conditions: for Weight gain: uninfected control 100
Procedure: (A) Eimeria tanella infection in laboratory chickens
(§5) Test method.--This test utilizes ten chickens per drug group. Ten chickens are employed as a weight control and ten chickens as an infected control. The drug is given 48 hours in advance of the infection. One gm. of the test drug is mixed in a mechanical mixer with a sufficient amount of chicken feed to result in the desired dosage. The infection consists of approximately 200,000 oocysts given orally by pipette. The tests lasts for eleven days and then the surviving birds are autopsied and examined for gross lesions in the ceca. The test birds are rated according to the number of survivors and the number of cecal lesions. The results are expressed as average degree of infection (A.D.I.). An average degree of infection of less than 2.5 is considered significant.

[3] = test system: mixtures of E. tenella, E. necatrix, E. acervulina, E. brunetti, E. maxima, E. mivati; experiment: Multiple Eimeria infections in chickens; format: in vivo, Eimeria (mixture; in chickens); conditions: for Average degree of infection: <2.5 significant; for Weight gain: uninfected control 100
Procedure: as §5
(B) Multiple Eimeria infections in chickens
Test method.--The test method is the same as for Eimeria tenella. The multiple Eimeria infections tested herein are mixtures of E. tenella, E. necatrix, E. acervulina, E. brunetti, E. maxima, E. mivati infections.

coccidiosis = experiment: Control of coccidiosis by medicated feed (general statements); format: in vivo, poultry (turkeys, chickens)
Source text: Thus, the compositions of this invention not only control coccidiosis, but also, aid in improving the efficiency of conversion of feed to weight gains.
Thus, for example, a feed premix or complete feed contains sufficient active ingredient to provide from about 0.001% to about 0.0125% by weight of the daily feed consumption. Preferably, about 0.00312% to 0.00625% by weight is used. Generally, about 0.005% to about 0.006% of the active ingredient is sufficient for the purpose of controlling and combating coccidiosis.
Even though amounts over 0.00625% are efficacious for combating coccidiosis, this amount is the preferred upper range because of economics, i.e., the cost per unit of effectiveness is lowest within this range. Amounts lower than 0.001% and in some cases lower than 0.003% are not effective for combating coccidiosis. Preferred is a lower limit of 0.00312% because this insures efficaciousness. The most preferred amount, i.e., about 0.005% to about 0.006% by weight of the poultry daily feed consumption is particularly efficacious since it achieves maximum effect with minimum dose. The range of the weight amounts of active antibiotic in the dried unfiltered broth solids which are efficacious for combating coccidiosis is the same as for the crystalline material or its salts. For example, when administered in feed to chicks so as to contain a dosage of 0.003% of active ingredient, the crude dried unfiltered broth results in an average degree of infection of 1.4 while at the same dosage, the sodium salt of the crystalline antibiotic results in an average degree of infection of 1.7. At a dosage equivalent to a concentration of active ingredient of 0.006%, the dried material results in an average degree of infection of 0.0 while the sodium salt of the crystalline antibiotic results in an average degree of infection of 0.2.

[4] = Acute oral toxicity in broiler chicks; conditions: chicken, in vivo; oral single dose, 9- or 8-day-old chicks; limits given as 59 ±3 mg. and 84 ±7 mg.

CCC(C(=O)C(C)C(O)C(C)CCc1ccc(C)c(O)c1C(=O)O)C1OC(CC)(C2CCC(O)(CC)C(C)O2)CC1C (centres unmarked) [antibiotic X-537A]
Antimicrobial activity (Bacillus E; Bacillus E): 800 Plate units per mg. | Bacillus E assay (Bacillus E; crystalline material from petroleum ether (contained sodium)): 500 E units per mg. | Bacillus E assay (Bacillus E; free acid recrystallized from ethanol): 800 E units per mg. | Antimicrobial activity (Bacillus cereus): 120 Plate units per mg. | Antimicrobial activity (Bacillus mesentericus): 50 Plate units per mg. | Antimicrobial activity (Bacillus simplex): 20 Plate units per mg. | Antimicrobial activity (Corynebacterium simplex): 20 Plate units per mg. | Antimicrobial activity (Mycobacterium phlei): 20 Plate units per mg. | Antimicrobial activity (Saccharomyces cerevisiac): 0 Plate units per mg. | Antimicrobial activity (Sarcina lutea): 500 Plate units per mg. | Antimicrobial activity [1]: 0 Plate units per mg. | Antimicrobial activity (Staphylococcus aureus): 20 Plate units per mg. | Antimicrobial activity (Gram-negatives): 0 Plate units per mg. | Activity in vitro against gram-positive bacteria (gram-positive bacteria): active | Activity in vitro against mycobacteria (mycobacteria): active | Activity in vitro against gram-negative bacteria (gram-negative bacteria): inactive | Lethal dose (Toxic dosage in mice; intraperitoneal): 62.5 mg/kg | MTD (Toxic dosage in mice; ip, intraperitoneal): 50 mg/kg | MTD (Toxic dosage in mice; oral): 62.5 mg/kg | MTD (Toxic dosage in mice; sc, subcutaneous): 62.5 mg/kg | Lethal dose (Toxic dosage in mice; oral): 125 mg/kg | Lethal dose (Toxic dosage in mice; subcutaneous): 125 mg/kg | Feed conversion ([2]; 0.025% in feed): impaired | Growth ([2]; 0.025% in feed): reduced | mortality at 1512 h ([2]; chicken, in vivo, po, 0.025% in feed): 25% | Adverse effects on performance (growth, feed efficiency and mortality) ([2]; up to 0.0125% by weight in feed, nine weeks): no adverse effects | Percent mortality (Eimeria tenella; Test I, 0.00312% in feed): 0% | Average degree of infection (Eimeria tenella; Test I, 0.00312% in feed, <2.5 significant): 2.2 | Weight gain (Eimeria tenella; Test I, 0.00312% in feed): 85% | Percent mortality (Eimeria tenella; Test I, 0.00625% in feed): 0% | Average degree of infection (Eimeria tenella; Test I, 0.00625% in feed, <2.5 significant): 0.4 | Weight gain (Eimeria tenella; Test I, 0.00625% in feed): 92% | Percent mortality (Eimeria tenella; Test II, 0.001% in feed): 15% | Average degree of infection (Eimeria tenella; Test II, 0.001% in feed, <2.5 significant): 2.8 | Weight gain (Eimeria tenella; Test II, 0.001% in feed): 80% | Percent mortality (Eimeria tenella; Test II, 0.002% in feed): 15% | Average degree of infection (Eimeria tenella; Test II, 0.002% in feed, <2.5 significant): 2.6 | Weight gain (Eimeria tenella; Test II, 0.002% in feed): 83% | Percent mortality (Eimeria tenella; Test II, 0.003% in feed): 5% | Average degree of infection (Eimeria tenella; Test II, 0.003% in feed, <2.5 significant): 2.2 | Weight gain (Eimeria tenella; Test II, 0.003% in feed): 85% | Percent mortality (Eimeria tenella; Test II, 0.004% in feed): 15% | Average degree of infection (Eimeria tenella; Test II, 0.004% in feed, <2.5 significant): 1.7 | Weight gain (Eimeria tenella; Test II, 0.004% in feed): 87% | Percent mortality (Eimeria tenella; Test II, 0.005% in feed): 5% | Average degree of infection (Eimeria tenella; Test II, 0.005% in feed, <2.5 significant): 0.8 | Weight gain (Eimeria tenella; Test II, 0.005% in feed): 94% | Percent mortality (Eimeria tenella; Test II, 0.006% in feed): 0% | Average degree of infection (Eimeria tenella; Test II, 0.006% in feed, <2.5 significant): 0.1 | Weight gain (Eimeria tenella; Test II, 0.006% in feed): 95% | Average degree of infection (Eimeria tenella; Test III, 0.003% in feed, <2.5 significant): 1.7 | Weight gain (Eimeria tenella; Test III, 0.003% in feed): 79% | Average degree of infection (Eimeria tenella; Test III, 0.004% in feed, <2.5 significant): 1.1 | Weight gain (Eimeria tenella; Test III, 0.004% in feed): 81% | Average degree of infection (Eimeria tenella; Test III, 0.005% in feed, <2.5 significant): 0.5 | Weight gain (Eimeria tenella; Test III, 0.005% in feed): 98% | Average degree of infection (Eimeria tenella; Test III, 0.006% in feed, <2.5 significant): 0.2 | Weight gain (Eimeria tenella; Test III, 0.006% in feed): 97% | Effectiveness in treatment of coccidiosis (Eimeria tenella; at the preferred dosages illustrated): effective | Effect on conversion of feed to weight gain (Eimeria tenella; used as a coccidiostat): does not substantially adversely affect | Percent mortality ([3]; 0.00312% in feed): 0% | Average degree of infection ([3]; 0.00312% in feed): 0.9 | Weight gain ([3]; 0.00312% in feed): 105% | Percent mortality ([3]; 0.00625% in feed): 0% | Average degree of infection ([3]; 0.00625% in feed): 0.0 | Weight gain ([3]; 0.00625% in feed): 108% | Efficiency of conversion of feed to weight gain ([3]; chickens): greater than expected | Effectiveness in treating multiple coccidiosis infections ([3]; in vivo): effective | Effectiveness against coccidiosis (coccidiosis; amounts greater than 0.0125% of feed): effective against coccidiosis, do not generally show improved results over 0.0125% | Effect on growth, feed efficiency and mortality (coccidiosis; amounts greater than 0.0125% of feed, in some cases): may adversely affect the growth, feed efficiency and mortality | Effectiveness against coccidiosis (coccidiosis; amounts lower than 0.001% and in some cases lower than 0.003% of feed): not effective | Toxicity / untoward side effects (coccidiosis; at dosages necessary to control coccidiosis): not toxic and shows no untoward side effects | Weight of treated fowl compared to controls (coccidiosis; oral, as component of feed): either maintain their weight or actually gain weight | Control of coccidiosis (coccidiosis; oral, as component of feed, turkeys and chickens): effectively controls the disease

CCC(C(=O)C(C)C(O)C(C)CCc1ccc(C)c(O)c1C(=O)O)C1OC(CC)(C2CCC(O)(CC)C(C)O2)CC1C (centres unmarked) [sodium salt of antibiotic X-537A]
LD50 [4]: 59 to 84 mg/kg | Average degree of infection (Eimeria tenella; text: 0.003% of active ingredient in feed to chicks): 1.7 | Average degree of infection (Eimeria tenella; text: 0.006% of active ingredient in feed to chicks): 0.2
